Literature values, collected in paper PMC4546577 (ACS chemical biology, 2015).

Conditions: sulphydryl group in MeaF; ref [69] PerrinDD, Dissociation constants of organic bases in aqueous solution, 1965

pKa (sulphydryl group): ~ 8.5
SMILES: N[C@@H](Cc1cccc(NCCS)c1)C(=O)O [MeaF, 3-(2-mercapto-ethyl)amino-phenylalanine]
